{
  "source": "patent US10800792B2",
  "about": "“Inhibitors of Bruton's tyrosine kinase and method of their use” (JANSSEN PHARMACEUTICA NV, priority 2015, dated 2020)",
  "data": [
    {"target": "unphosphorylated-BTK kinase domain (UP-BTK), GST-tagged human BTK (389-659aa) (Homo sapiens (Human), UniProt Q06187)", "sequence (Q06187 389-659)": "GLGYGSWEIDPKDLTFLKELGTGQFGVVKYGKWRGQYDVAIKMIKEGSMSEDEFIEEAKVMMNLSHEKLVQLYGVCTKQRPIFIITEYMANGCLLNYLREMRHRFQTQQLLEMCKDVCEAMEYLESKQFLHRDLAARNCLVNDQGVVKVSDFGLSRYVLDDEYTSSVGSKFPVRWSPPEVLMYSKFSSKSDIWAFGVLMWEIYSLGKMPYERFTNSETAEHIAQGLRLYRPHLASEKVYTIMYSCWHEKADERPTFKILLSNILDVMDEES", "experiment": "BTK kinase Lanthascreen binding assay", "details": "Lanthascreen tracer competition, 60 minutes incubation; pIC50 = negative log of the IC50 in molar", "how_it_was_run": "(§1)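 Measures how well compounds compete with a fluorescence-labelled tracer for binding to BTK in its unphosphorylated state. IC50 values were fitted and expressed as pIC50 (negative logarithm of the molar IC50).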", "values": [
      {"smiles": "Cc1cc(Oc2ccccc2)ccc1N1C(=O)Nc2c(C(=O)N[C@H]3CCCN(C(=O)CC#N)C3)sc3nccc1c23", "note": "[Example 892, (S)—N-(1-(2-Cyanoacetyl)piperidin-3-yl)-5-(2-methyl-4-phenoxyphenyl)-4-oxo-4,5-dihydro-3H-1-thia-3,5,8-triazaacenaphthylene-2-carboxamide]", "BTK_I_binding pIC50": 7.0},
      {"smiles": "C=CC(=O)N1CCC[C@@H](NC(=O)c2sc3nccc4c3c2NC(=O)N4c2ccc(Oc3ccccn3)cc2C)C1", "note": "[Example 778, (R)—N-(1-Acryloylpiperidin-3-yl)-5-(2-methyl-4-(pyridin-2-yloxy)phenyl)-4-oxo-4,5-dihydro-3H-1-thia-3,5,8-triazaacenaphthylene-2-carboxamide]", "BTK_I_binding pIC50": 8.0}
    ]},
    {"target": "unphosphorylated-BTK kinase domain (UP-BTK), GST-tagged human BTK (389-659aa) (Homo sapiens (Human), UniProt Q06187)", "experiment": "BTK kinase Lanthascreen binding assay", "details": "Lanthascreen tracer competition, 60 minutes incubation; pIC50 = negative log of the IC50 in molar; read-out: BTK_I_binding pIC50 (converted)", "how_it_was_run": "as §1", "units": {"IC50": "nM"}, "values": [
      {"smiles": "C=CC(=O)N1CC[C@@H](NC(=O)c2sc3nccc4c3c2NC(=O)N4c2ccc(Oc3ccccc3)cn2)C1", "note": "[Example 698, (R)—N-(1-Acryloylpyrrolidin-3-yl)-4-oxo-5-(5-phenoxypyridin-2-yl)-4,5-dihydro-3H-1-thia-3,5,8-triazaacenaphthylene-2-carboxamide]", "IC50": 31.6},
      {"smiles": "CC(C)(C)OC(=O)N1C[C@H](O)C[C@@H](NC(=O)c2sc3nccc4c3c2NC(=O)N4c2ccc(Oc3ccccc3)cc2)C1", "note": "(single isomer, unassigned) [Example 611]", "IC50": 631}
    ]},
    {"target": "unphosphorylated-BTK kinase domain (UP-BTK), GST-tagged human BTK (389-659aa) (Homo sapiens (Human), UniProt Q06187)", "experiment": "BTK kinase Lanthascreen binding assay", "details": "pIC50 = negative log of the IC50 in molar; 60 minutes incubation, 50 nM Tracer 236", "how_it_was_run": "as §1", "values": [
      {"smiles": "C=CC(=O)N1C[C@H](NC(=O)c2sc3nccc4c3c2NC(=O)N4c2ccc(Oc3ccccc3)cc2C)C[C@H](OC)C1", "note": "[Example 14, N-((3R,5S)-1-Acryloyl-5-methoxypiperidin-3-yl)-5-(2-methyl-4-phenoxyphenyl)-4-oxo-4,5-dihydro-3H-1-thia-3,5,8-triazaacenaphthylene-2-carboxamide]", "BTK_I_binding pIC50": 7.4},
      {"smiles": "C=CC(=O)N1CCC[C@@H](NC(=O)c2sc3nccc4c3c2NC(=O)N4c2ccccc2C)C1", "note": "[Example 216, (R)—N-(1-Acryloylpiperidin-3-yl)-4-oxo-5-(o-tolyl)-4,5-dihydro-3H-1-thia-3,5,8-triazaacenaphthylene-2-carboxamide]", "BTK_I_binding pIC50": 6.7},
      {"smiles": "C=CC(=O)N1CC[C@@H](NC(=O)c2sc3nccc4c3c2NC(=O)N4c2ccc(Oc3ccccc3)cc2C)C1", "note": "(single isomer, unassigned) [Example 5, (R)—N-(1-Acryloylpyrrolidin-3-yl)-5-(*S)-(2-methyl-4-phenoxyphenyl)-4-oxo-4,5-dihydro-3H-1-thia-3,5,8-triazaacenaphthylene-2-carboxamide]", "BTK_I_binding pIC50": 8.1},
      {"smiles": "Cc1cc(Oc2ccccc2)ccc1N1C(=O)Nc2c(C(=O)NC3CCOCC3)sc3nccc1c23", "note": "[Example 123, 5-(2-Methyl-4-phenoxyphenyl)-4-oxo-N-(tetrahydro-2H-pyran-4-yl)-4,5-dihydro-3H-1-thia-3,5,8-triazaacenaphthylene-2-carboxamide]", "BTK_I_binding pIC50": 6.9},
      {"smiles": "Cc1cc(Oc2ccccc2)ccc1N1C(=O)Nc2c(C(=O)NC3(CO)CCOCC3)sc3nccc1c23", "note": "[Example 192, N-(4-(Hydroxymethyl)tetrahydro-2H-pyran-4-yl)-5-(2-methyl-4-phenoxyphenyl)-4-oxo-4,5-dihydro-3H-1-thia-3,5,8-triazaacenaphthylene-2-carboxamide]", "BTK_I_binding pIC50": 6.8},
      {"smiles": "C=CC(=O)N1CC(NC(=O)c2sc3nccc4c3c2NC(=O)N4c2ccc(Oc3ccccc3)cc2C)C1", "note": "[Example 109, N-(1-Acryloylazetidin-3-yl)-5-(2-methyl-4-phenoxyphenyl)-4-oxo-4,5-dihydro-3H-1-thia-3,5,8-triazaacenaphthylene-2-carboxamide]", "BTK_I_binding pIC50": 7.2},
      {"smiles": "CO[C@H]1CNC[C@H](NC(=O)c2sc3nccc4c3c2NC(=O)N4c2ccc(Oc3ccccc3)cc2C)C1", "note": "[Example 224, N-((3R,5R)-5-Methoxypiperidin-3-yl)-5-(2-methyl-4-phenoxyphenyl)-4-oxo-4,5-dihydro-3H-1-thia-3,5,8-triazaacenaphthylene-2-carboxamide]", "BTK_I_binding pIC50": 6.8}
    ]},
    {"target": "unphosphorylated-BTK kinase domain (UP-BTK), GST-tagged human BTK (389-659aa) (Homo sapiens (Human), UniProt Q06187)", "experiment": "BTK kinase Lanthascreen binding assay", "details": "pIC50 = negative log of the IC50 in molar; 60 minutes incubation, 50 nM Tracer 236; read-out: BTK_I_binding pIC50 (converted)", "how_it_was_run": "as §1", "units": {"IC50": "nM"}, "values": [
      {"smiles": "C=CC(=O)N1C[C@H](NC(=O)c2sc3nccc4c3c2NC(=O)N4c2ccc(Oc3ccccc3)cc2C)[C@@H](F)C1", "note": "[Example 36, N-((3S,4S)-1-Acryloyl-4-fluoropyrrolidin-3-yl)-5-(2-methyl-4-phenoxyphenyl)-4-oxo-4,5-dihydro-3H-1-thia-3,5,8-triazaacenaphthylene-2-carboxamide]", "IC50": 20}
    ]},
    {"target": "unphosphorylated-BTK kinase domain (UP-BTK), GST-tagged human BTK (389-659aa) (Homo sapiens (Human), UniProt Q06187)", "experiment": "BTK kinase Lanthascreen binding assay", "details": "unphosphorylated-BTK kinase domain, 50 nM Tracer 236, 60 minutes; pIC50 = negative log of the IC50 in molar", "how_it_was_run": "as §1", "values": [
      {"smiles": "C/C=C(\\C#N)C(=O)N1CCC[C@@H](NC(=O)c2sc3nccc4c3c2NC(=O)N4c2ccc(Oc3ccccc3)cc2C)C1", "note": "[Example 385, (R,E)-N-(1-(2-Cyanobut-2-enoyl)piperidin-3-yl)-5-(2-methyl-4-phenoxyphenyl)-4-oxo-4,5-dihydro-3H-1-thia-3,5,8-triazaacenaphthylene-2-carboxamide]", "BTK_I_binding pIC50": 7.9},
      {"smiles": "C=CC(=O)N1CCC[C@@H](NC(=O)c2sc3nccc4c3c2NC(=O)N4c2ccc3ccccc3c2)C1", "note": "[Example 419, (R)—N-(1-Acryloylpiperidin-3-yl)-5-(naphthalen-2-yl)-4-oxo-4,5-dihydro-3H-1-thia-3,5,8-triazaacenaphthylene-2-carboxamide]", "BTK_I_binding pIC50": 5.7},
      {"smiles": "C=CC(=O)N1C[C@H](O)C[C@@H](NC(=O)c2sc3nccc4c3c2NC(=O)N4c2ccc(OC(C)C)cc2C)C1", "note": "[Example 557, N-((3R,5R)-1-Acryloyl-5-hydroxypiperidin-3-yl)-5-(4-isopropoxy-2-methylphenyl)-4-oxo-4,5-dihydro-3H-1-thia-3,5,8-triazaacenaphthylene-2-carboxamide]", "BTK_I_binding pIC50": 7.3},
      {"smiles": "Cc1cc(Oc2ccccc2)ccc1N1C(=O)Nc2c(C(=O)N[C@@H]3CCN(C)C3)sc3nccc1c23", "note": "(single isomer, unassigned) [Example 493, (R)-5-(*S)-(2-Methyl-4-phenoxyphenyl)-N-(1-methylpyrrolidin-3-yl)-4-oxo-4,5-dihydro-3H-1-thia-3,5,8-triazaacenaphthylene-2-carboxamide]", "BTK_I_binding pIC50": 6.9},
      {"smiles": "C=CC(=O)N1CCC[C@@H](NC(=O)c2sc3nccc4c3c2NC(=O)N4c2ccc(OC3CCC3)cc2)C1", "note": "[Example 457, (R)—N-(1-Acryloylpiperidin-3-yl)-5-(4-cyclobutoxyphenyl)-4-oxo-4,5-dihydro-3H-1-thia-3,5,8-triazaacenaphthylene-2-carboxamide]", "BTK_I_binding pIC50": 7.6},
      {"smiles": "Cc1cc(Oc2ccccc2)ccc1N1C(=O)Nc2c(C(=O)N[C@@H]3CCN(C(=O)/C=C/CN)C3)sc3nccc1c23", "note": "[Example 382, (R,E)-N-(1-(4-Aminobut-2-enoyl)pyrrolidin-3-yl)-5-(2-methyl-4-phenoxyphenyl)-4-oxo-4,5-dihydro-3H-1-thia-3,5,8-triazaacenaphthylene-2-carboxamide]", "BTK_I_binding pIC50": 7.3},
      {"smiles": "C=CC(=O)N1CCC[C@@H](NC(=O)c2sc3nccc4c3c2NC(=O)N4c2cccc(Cc3ccccc3)c2)C1", "note": "[Example 516, (R)—N-(1-Acryloylpiperidin-3-yl)-5-(3-benzylphenyl)-4-oxo-4,5-dihydro-3H-1-thia-3,5,8-triazaacenaphthylene-2-carboxamide]", "BTK_I_binding pIC50": 7.7}
    ]},
    {"target": "unphosphorylated-BTK kinase domain (UP-BTK), GST-tagged human BTK (389-659aa) (Homo sapiens (Human), UniProt Q06187)", "experiment": "BTK kinase Lanthascreen binding assay", "details": "unphosphorylated-BTK kinase domain, 60 minutes incubation, 50 nM Tracer 236; pIC50 = negative log of the IC50 in molar", "how_it_was_run": "as §1", "values": [
      {"smiles": "Cc1cc(Oc2ccccc2)ccc1N1C(=O)Nc2c(C(=O)N[C@@H]3CCCN(C(=O)CN4CCC4)C3)sc3nccc1c23", "note": "[Example 908, (R)—N-(1-(2-(Azetidin-1-yl)acetyl)piperidin-3-yl)-5-(2-methyl-4-phenoxyphenyl)-4-oxo-4,5-dihydro-3H-1-thia-3,5,8-triazaacenaphthylene-2-carboxamide]", "BTK_I_binding pIC50": 6.7}
    ]}
  ]
}
